Experimental findings from US20250115612A1, “CERTAIN 2,5-DIAZABICYCLO[4.2.0]OCTANES AND OCTAHYDROFURO[3,4-B]PYRAZINES AS GLP-1 RECEPTOR MODULATORS” (ASTRAZENECA AB, priority 2021, published 2025) are described below.

The target of one test is T1, human GLP-1R receptor (Homo sapiens, UniProt P43220, L260F).
T1 construct: expressed in transfected cells; host or cells: CHO-K1 (ATCC CCL-61)
The test can be described thus: CHOK1 GLP-1R cAMP assay (HTRF). Particulars: CHO-K1 cells stably expressing human GLP-1R. Format: cell-based. On the procedure:
A cell line stably expressing the human GLP-1R receptor (NM_002062.5, including the naturally-occurring variant Leu260Phe) in a CHO-K1 (ATCC® CCL-61™) was used for assay.
GLP-1 receptor mediated agonist activity was determined in a cell-based assay measuring cyclic adenosine monophosphate (cAMP) levels in cells using Homogeneous Time-Resolved Fluorescence (HTRF) cAMP detection kit (CisBio catalog #62AM4PEC, cAMP Gs Dynamic range kit). The cAMP detection method is based on a competitive immunoassay, in which cAMP produced by the cells and cAMP labeled with the dye d2 compete for binding to a Europium-Cryptate-labeled anti-cAMP antibody. The specific HTRF signal is inversely proportional to the concentration of cAMP.
Compounds were added to individual well in 384 well-assay plates (Greiner #784076) using an Echo (LabCyte) dispenser from 10 mM stocks. Varying concentration of compounds were added to wells, and DMSO was used to normalize each well to a volume of 100 nL. A dose response curve of GLP-1(7-36)NH2 (Bachem H-6795) was included in each run. 5 μL of cAMP concentration response standards are applied in specified wells in the assay plates. Cryo-preserved cells are thawed and resuspended in assay buffer pre-heated to 37° C. (20 mM 2-[4-(2-hydroxyethyl)piperazin-1-yl]ethanesulfonic acid (HEPES) pH 7.4, lx Hank's Balanced Salt Solution (HBSS, Life Technologies #14065) supplemented with 0.1% (w/v) bovine serum albumin (Sigma, A-7030)). Cells were centrifuged at 250*g for 5 min at rt, and resuspended in room tempered assay buffer to a final density of 0.16*10^6 cell/mL, to deliver 800 cells/well. 5 μL of assay buffer with 1 mM 3-isobutyl-1-methylxanthin (IBMX; Sigma cat I-7018) was dispensed per well in assay plates using a multidrop combi (Thermo Scientific) subsequently 5 μL of cell suspension was distributed to relevant wells in the assay using a multidrop dispenser. Assay plates were incubated 20 min at rt.
Detection reagents, Europium-Cryptate-labeled anti-cAMP antibody and cAMP labeled with the dye d2, are diluted in lysis buffer, provided by the manufacturer. 5 μL of each detection reagent is supplemented to each assay well using a multidrop dispenser. Assay plates are incubated in the dark for at least one h. The HTRF signal is measured using the HTRF module (excitation: 337 nm, emission A: 665 nm and emission B: 620 nm) in Pherastar FSX (BMG Labtech).
Raw data were converted to pM cAMP using the cAMP standard curve included in each run. Converted data were further analyzed in Genedata Screener (Genedata) and EC50 determinations were made from agonist dose-response curves analyzed with a curve fitting program using a 4-parameter logistic dose response equation (Equation y=A+((B−A)/1+((C/x)^D))) where A is no stimulation, B is full stimulation, C is the EC50 and D is the Hill slope). The percent effect was determined relative to a saturating concentration of a full GLP-1R agonist (GLP-1(7-36)NH2 has 100% effect in this assay setup).
In general terms: cAMP levels reflect the balance of adenylyl cyclase and phosphodiesterase activity.

A further test concerns the target T2, GLP-1R (Homo sapiens, UniProt P43220).
T2 construct: host or cells: EndoC-βH1
Nature of the test: EndoC cAMP accumulation assay (HTRF, EndoC-βH1 cells). In kind it is cell-based. Particulars: EndoC-βH1 human pancreatic β cell line. The text has this: EndoC cAMP Accumulation Assay
A HTRF cAMP assay (cAMP Gs dynamic kit; CisoBio Cat #62AM4PEJ) was used to identify agonists of GLP-1R in a pancreatic insulinoma cell line (EndoC-PH1). […] EndoC-βH1 cells have detectable GLP-1R messenger ribonucleic acid (mRNA) as detected by quantitative polymerase chain reaction (qPCR). […] The EndoC-βH1 cell line is a valid model of human beta cells and applicable for screenings to identify novel drug target candidates (Mol. Metab., 2018, 8, 144-157). CisBio HTRF cAMP kits are based on a competitive immunoassay using cryptate-labelled anti-cAMP antibody and d2-labeled cAMP. The detection kit is intended for the direct quantitative determination of cAMP. The specific signal (i.e. energy transfer) is inversely proportional to the concentration of cAMP in the standard or sample. Test compounds (10 mM in DMSO) were diluted into assay buffer (HBSS (Sigma #H8264) supplemented with 25 mM HEPES (Gibco #15630, pH 7.4), 0.1% BSA (Sigma #A3059) and 0.5 mM IBMX (Sigma #I7018) included fresh on the day of the assay) into 96 well U-bottom plates (Greiner #650201). Diluted compounds were transferred to ECHO source polypropelene plates (Labcyte #P-05525) and dose response curves were dispensed acoustically using ECHO 550 into black shallow-well u-bottom 384-well HTRF Assay Plates (Corning 4514).
Cryovials of EndoC-H1 (supplied at 1×10e^7 cells/vial) were used directly for screening. The cryovials and were removed from N2(l) and thawed rapidly in a 37° C. water bath. The cells were resuspended in assay buffer and centrifuged at 300 g for 5 min. Cells were resuspended in assay buffer at the appropriate concentration, typically at 12e5 cells per mL (3000 cells per well, dependent on cell batch) and 2.5 μL diluted cells were added to all wells of destination plate by Multidrop combi reagent dispenser (Thermofisher). The plates were incubated at rt for 30 min. The assay was stopped by adding 2.5 μL anti-cAMP cryptate solution to all wells and 2.5 μL cAMP-d2 solution (both diluted 1:20 in lysis buffer) to columns 1-22 by Combi drop. A volume of 2.5 μL cAMP-d2 solution was added to wells E23 to P24 and 2.5 μL lysis buffer added to wells A23 to D24 by multichannel pipette. The plates were incubated at rt for 1 h and read on an Envision plate reader using excitation wavelength of 320 nm and emission of 590 nm and 660 nm.
Raw data from Envision is converted to % DeltaF according to the manufacturer's instructions. Dose response curves are analysed via 4-Parameter Logistical Analysis and assay plate Z′ values obtained. Samples are graphed as percentage (%) activation plots compared to GIP (1-42, Bachem H-5645) with assay window defined by negative control as basal cell cAMP levels and positive control are defined by maximum GIP (82.5 nM) signal. GLP-1 (7-36 amide, Bachem H-6795) dose response curve was included on all plates.

The target in test [1] is T3, human phosphodiesterase-3A (Homo sapiens, UniProt Q14432).
T3 construct: host or cells: Sf9 (Spodoptera frugiperda)
Nature of the test: PDE3 assay (formation of 5'AMP from cAMP, SPA). In kind it is biochemical. Particulars: human recombinant enzyme expressed in Sf9 cells. On the procedure: Evaluation of the effects of compounds on the activity of the human phosphodiesterase-3A is quantified by measuring the formation of 5′AMP from cAMP using a human recombinant enzyme expressed in a clonal isolate of Spodoptera frugiperda cells (Sf9) cells.
The test compound, reference compound or water (control) are added to a buffer containing 40 mM tris(hydroxymethyl)aminomethane (Tris)/HCl (pH 7.4) and 8 mM MgCl2, 450 nMcAMP and 0.25 μCi [3H]cAMP.
Thereafter, the reaction is initiated by addition of the enzyme (about 1 U) and the mixture is incubated for 20 min at 22° C.
For basal control measurements, the enzyme is omitted from the reaction mixture.
Following incubation SPA beads are added. After 30 min at 22° C. under shaking, the amount of [^3H]5′AMP is quantified with a scintillation counter (Topcount, Packard).
The results are expressed as a percent inhibition of the control enzyme activity. The standard inhibitory reference compound is milrinone (CAS number 78415-72-2), which is tested in each experiment at several concentrations to obtain an inhibition curve from which its IC50 value is calculated.

Bounds are passed on as bounds.

T1 sequence (P43220 24-463 L260F): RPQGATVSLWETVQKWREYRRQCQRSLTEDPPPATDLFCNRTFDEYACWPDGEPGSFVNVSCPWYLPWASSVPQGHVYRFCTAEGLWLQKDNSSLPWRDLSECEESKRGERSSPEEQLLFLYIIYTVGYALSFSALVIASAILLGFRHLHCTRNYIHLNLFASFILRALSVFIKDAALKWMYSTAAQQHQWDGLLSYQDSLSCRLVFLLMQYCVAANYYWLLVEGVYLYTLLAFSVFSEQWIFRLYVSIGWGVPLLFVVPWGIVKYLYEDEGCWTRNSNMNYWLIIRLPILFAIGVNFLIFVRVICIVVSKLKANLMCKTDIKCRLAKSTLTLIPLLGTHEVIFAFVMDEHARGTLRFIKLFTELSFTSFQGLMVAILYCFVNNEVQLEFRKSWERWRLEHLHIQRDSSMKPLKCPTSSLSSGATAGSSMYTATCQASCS
T2 sequence (P43220 24-463): as the sequence (P43220 24-463 L260F) above, with F237L counted along it
T3 sequence (Q14432 whole entry): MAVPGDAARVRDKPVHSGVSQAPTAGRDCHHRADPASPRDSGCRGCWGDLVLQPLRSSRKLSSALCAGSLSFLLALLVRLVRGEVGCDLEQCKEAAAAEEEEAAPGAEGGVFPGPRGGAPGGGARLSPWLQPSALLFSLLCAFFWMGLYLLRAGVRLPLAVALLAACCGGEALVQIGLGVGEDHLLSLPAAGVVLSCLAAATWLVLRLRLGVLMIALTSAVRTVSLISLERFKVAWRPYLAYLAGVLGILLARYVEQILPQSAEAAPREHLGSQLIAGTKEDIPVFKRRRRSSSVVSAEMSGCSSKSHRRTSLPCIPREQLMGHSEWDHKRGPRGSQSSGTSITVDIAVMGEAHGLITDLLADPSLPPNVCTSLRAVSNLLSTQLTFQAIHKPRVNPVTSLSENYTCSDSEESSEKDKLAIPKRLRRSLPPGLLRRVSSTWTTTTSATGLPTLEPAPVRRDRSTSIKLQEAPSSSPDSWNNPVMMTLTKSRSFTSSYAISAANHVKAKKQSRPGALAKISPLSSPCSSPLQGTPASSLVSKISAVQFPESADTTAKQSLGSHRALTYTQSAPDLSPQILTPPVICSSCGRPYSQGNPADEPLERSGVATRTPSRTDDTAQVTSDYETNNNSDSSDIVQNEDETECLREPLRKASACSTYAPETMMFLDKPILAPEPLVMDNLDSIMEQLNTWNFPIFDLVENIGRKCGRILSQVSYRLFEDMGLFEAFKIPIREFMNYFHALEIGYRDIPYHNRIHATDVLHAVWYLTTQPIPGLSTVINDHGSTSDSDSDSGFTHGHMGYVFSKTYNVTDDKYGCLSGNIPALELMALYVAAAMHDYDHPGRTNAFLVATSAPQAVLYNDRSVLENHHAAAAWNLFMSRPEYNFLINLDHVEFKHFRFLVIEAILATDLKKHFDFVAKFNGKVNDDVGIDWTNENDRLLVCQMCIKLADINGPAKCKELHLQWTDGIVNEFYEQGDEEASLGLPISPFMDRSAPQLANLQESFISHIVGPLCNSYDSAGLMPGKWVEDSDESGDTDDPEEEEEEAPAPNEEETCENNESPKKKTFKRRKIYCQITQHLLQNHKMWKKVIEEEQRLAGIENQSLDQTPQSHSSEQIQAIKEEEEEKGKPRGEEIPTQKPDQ

With `N#Cc1ccc(COc2cccc(N3CCN(Cc4nc5ccc(C(=O)O)cc5n4C[C@@H]4CCO4)[C@H]4COC[C@H]43)n2)c(F)c1` (racemic) [Example 17, 2-(((4aRS,7aSR)-4-(6-((4-Cyano-2-fluorobenzyl)oxy)pyridin-2-yl)hexahydrofuro[3,4-b]pyrazin-1(2H)-yl)methyl)-1-(((S)-oxetan-2-yl)methyl)-1H-benzo[d]imidazole-6-carboxylic acid], the EC50 at human GLP-1R receptor worked out at 2 nM; at GLP-1R it was 14 nM. Also, in test [1], the 50% inhibitory concentration (IC50) came to 3500 nM.
Taken in the same sequence, the figures for `N#Cc1ccc(COc2cccc(N3CCN(Cc4nc5c(F)cc(C(=O)O)cc5n4C[C@@H]4CCO4)[C@H]4CC[C@@H]43)n2)c(F)c1` (single isomer, unassigned) [Example 3b, 2-(((1R*,6R*)-5-(6-((4-Cyano-2-fluorobenzyl)oxy)pyridin-2-yl)-2,5-diazabicyclo[4.2.0]octan-2-yl)methyl)-4-fluoro-1-(((S)-oxetan-2-yl)methyl)-1H-benzo[d]imidazole-6-carboxylic acid] were 1.1 nM, 8.7 nM and 11000 nM.
The corresponding values for `COc1cc(C(=O)O)cc2c1nc(CN1CCN(c3cccc(OCc4ccc(C#N)cc4F)n3)[C@H]3CC[C@@H]31)n2C[C@@H]1CCO1` (single isomer, unassigned) [Example 4a, 2-(((1R*,6R*)-5-(6-((4-Cyano-2-fluorobenzyl)oxy)pyridin-2-yl)-2,5-diazabicyclo[4.2.0]octan-2-yl)methyl)-4-methoxy-1-(((S)-oxetan-2-yl)methyl)-1H-benzo[d]imidazole-6-carboxylic acid] are 4 nM, 5.5 nM and 3800 nM.
The corresponding values for `COc1cc(C(=O)O)cc2c1nc(CN1CCN(c3cccc(OCc4ccc(C#N)cc4F)n3)[C@H]3CC[C@@H]31)n2C[C@@H]1CCO1` (single isomer, unassigned) [Example 4b, 2-(((1R*,6R*)-5-(6-((4-Cyano-2-fluorobenzyl)oxy)pyridin-2-yl)-2,5-diazabicyclo[4.2.0]octan-2-yl)methyl)-4-methoxy-1-(((S)-oxetan-2-yl)methyl)-1H-benzo[d]imidazole-6-carboxylic acid] are 0.6 nM, 3 nM and 6500 nM.
Consider `COc1cc(C(=O)O)cc2c1nc(CN1CCN(c3cccc(OCc4ccc(Cl)cc4F)n3)[C@H]3CC[C@@H]31)n2C[C@@H]1CCO1` (single isomer, unassigned) [Example 5b, 2-(((1R*,6R*)-5-(6-((4-Chloro-2-fluorobenzyl)oxy)pyridin-2-yl)-2,5-diazabicyclo[4.2.0]octan-2-yl)methyl)-4-methoxy-1-(((S)-oxetan-2-yl)methyl)-1H-benzo[d]imidazole-6-carboxylic acid], for which the EC50 came to 0.5 nM at human GLP-1R receptor and 2.1 nM on GLP-1R. The half-inhibitory concentration (IC50) in test [1] was greater than 100000 nM.
The corresponding values for `N#Cc1ccc(COc2cccc(N3CCN(Cc4nc5c(Cl)cc(C(=O)O)cc5n4C[C@@H]4CCO4)[C@H]4CC[C@H]43)n2)c(F)c1` (single isomer, unassigned) [Example 6a] are 0.6 nM, 1.9 nM and 2900 nM.
Taken in the same sequence, the figures for `N#Cc1ccc(COc2cccc(N3CCN(Cc4nc5c(Cl)cc(C(=O)O)cc5n4C[C@@H]4CCO4)[C@H]4CC[C@H]43)n2)c(F)c1` (single isomer, unassigned) [Example 6c] were 8.1 nM, 5.6 nM and 2500 nM.
The corresponding values for `N#Cc1ccc(COc2cccc(N3CCN(Cc4nc5c(Cl)cc(C(=O)O)cc5n4C[C@@H]4CCO4)[C@H]4CC[C@H]43)n2)c(F)c1` (single isomer, unassigned) [Example 6d] are 3.5 nM, 2.4 nM and 3000 nM.
For `N#Cc1ccc(COc2cccc(N3CCN(Cc4nc5cc(Cl)c(C(=O)O)cc5n4C[C@@H]4CCO4)[C@H]4CC[C@H]43)n2)c(F)c1` (single isomer, unassigned) [Example 7a], the figures for the EC50 at human GLP-1R receptor and at GLP-1R were 9.4 nM and 7.2 nM, respectively. Moreover, in test [1], the concentration for half-maximal inhibition (IC50) stood at 2200 nM.
Taken in the same sequence, the figures for `N#Cc1ccc(COc2cccc(N3CCN(Cc4nc5cc(F)c(C(=O)O)cc5n4C[C@@H]4CCO4)[C@H]4CC[C@@H]43)n2)c(F)c1` (single isomer, unassigned) [Example 9b] were 2.1 nM, 27 nM and 4600 nM.
`N#Cc1ccc(COc2cccc(C3CCN(Cc4nc5ccc(C(=O)O)cc5n4C[C@@H]4CCO4)CC3)n2)c(F)c1` [Ref Comp B, reference compound]: the IC50 in test [1] is 11000 nM.

For orientation: EC50 means the concentration giving half of the maximal effect. Higher therefore signals weaker potency. The IC50 is the midpoint of a concentration-inhibition curve.
